#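 Where inhibition never reached the appropriate level, the endpoint shown equals the highest concentration tested. Otherwise, values were interpolated linearly from a five-concentration, 48-hour dose response in 96-well plates. Definition used: TGI = concentration required for complete inhibition of growth.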
# Experiments:
# Assay in all cases: NCI-60 cell line screen, 48 h
# 786-0 renal = test system: 786-0 renal
# A549 NSCLC = test system: A549 NSCLC
# HCT-15 colon = test system: HCT-15 colon
# IGROV1 ovarian = test system: IGROV1 ovarian
# MALME-3M melanoma = test system: MALME-3M melanoma
# MDA-MB-231 breast = test system: MDA-MB-231 breast
# OVCAR-4 ovarian = test system: OVCAR-4 ovarian
# OVCAR-5 ovarian = test system: OVCAR-5 ovarian
# SNB-75 CNS = test system: SNB-75 CNS
# UACC-257 melanoma = test system: UACC-257 melanoma
SMILES,TGI (786-0 renal) [µM],TGI (A549 NSCLC) [µM],TGI (HCT-15 colon) [µM],TGI (IGROV1 ovarian) [µM],TGI (MALME-3M melanoma) [µM],TGI (MDA-MB-231 breast) [µM],TGI (OVCAR-4 ovarian) [µM],TGI (OVCAR-5 ovarian) [µM],TGI (SNB-75 CNS) [µM],TGI (UACC-257 melanoma) [µM]
COc1ccc(CN2C(=O)CCC/C=C\[C@H]2CI)cc1,27,21.5,24.9,29,24.4,23,22.8,24.5,17.5,21.7
COc1c2nc(CCl)n(C)c(=O)c2c(OC)c2c(=O)n(C)c(CCl)nc12,3.29,13.3,2.86,4.56,3.44,2.88,> 100,7.75,3.8,5.24
COc1ccc2c(c1O)-c1c(OC)c(OC)cc3c1[C@H](C2)[N+](C)(C)CC3,> 100,> 100,> 100,> 100,> 100,> 100,> 100,> 100,> 100,> 100
CCOn1cc(C[C@@]2(O)C(=O)OC3[C@@H](O)CO[C@@]32O)c2ccccc21 (stereo not given in full),> 100,> 100,> 100,> 100,> 100,> 100,> 100,> 100,> 100,> 100
Oc1c(OCc2nnc(CCCCCCCCc3nnc(COc4ccc5ccccc5c4O)n3Nc3ccccc3)n2Nc2ccccc2)ccc2ccccc12,27.4,27.8,30,31.5,28.8,23.4,20.7,28.5,35.5,25.7
CSc1nc2c(c(N(C)C)n1)C=Nn1c(nc3ccccc31)S2,> 100,> 100,> 100,> 100,> 100,> 100,> 100,> 100,> 100,> 100
O=C(Cc1ccc(Cl)c(Cl)c1)NCCCN1CCN(CCCN2CCCCC2)CC1,31.7,49.5,46.5,75,34.7,28.8,> 100,46.6,49.3,19.6
CCOC(=O)C1(Cc2ccc(C)cc2)Cc2ccc(C)cc2C1=O (stereo not given),> 100,> 100,> 100,> 100,> 97.1,> 100,> 100,> 100,> 100,98.2
O=C(CCSC(CC(=O)c1ccc(Cl)cc1)c1ccc(Cl)cc1)Nc1ccc(Cl)cc1 (stereo not given),27.6,40,24.2,29.6,30.6,33.4,35.5,31.6,36.4,29.6
CN1CC(c2ccccc2)=Cc2c1ccc(N)c2N=N,> 100,> 100,> 100,> 100,> 100,> 100,> 100,> 100,> 100,> 100
O=C1N[C@H]2c3c(Cl)sc(Cl)c3C(=O)[C@H]2O1,> 54.2,> 100,5.51,14.4,24.1,> 58.2,37.5,51.1,34.9,36.2
COC(=O)C1Cc2c(C)cccc2C1=O (stereo not given),> 100,> 100,> 100,> 100,> 100,> 100,> 100,> 100,> 100,> 100
CN(NC(=O)c1ccco1)C1=NCCCCN1,> 100,> 100,> 100,> 100,> 100,> 100,> 100,> 100,> 100,> 100
COc1ccc(C2CC(c3cc4c(C)c(C(=O)c5ccccc5)oc4cc3O)=Nc3ccccc3S2)cc1OC (stereo not given),> 100,> 100,> 100,> 100,> 100,> 100,> 48.9,> 100,> 100,> 100
CCC1(O)C=CC(=O)C=C1,39.2,> 100,55.5,40.6,28.2,36.6,> 100,> 100,> 96.1,> 52.5
C1=C2SSC3=CC=C(SSc4ccc(s4)SSC4=CC=C(SSC(=C1)S2)S4)S3,> 100,> 100,> 100,> 100,> 100,> 100,> 100,> 100,> 100,> 100

# — PubChem BioAssay (NCI)
